In patent US8258186B2, “Pharmaceutical for oral delivery comprising MGBG” (Pathologica, LLC, priority 2009, dated 2012):

Key:
[1] = system: carrageenan air pouch inflammation; test: Carrageenan air pouch model; format: in vivo, Swiss Webster mice; settings: mice, MGBG PO BID 3, 10, 30 mg/kg/dose
Text: Injection of air subcutaneously will induce the formation of a connective tissue cavity lined with cells that resemble and function like a synovial lining. This method is commonly known as the Air Pouch Model and is a useful animal model of inflammation that can be generated in a relatively short period of time. The air pouch may be created by subcutaneous (SQ) injection of a volume of sterile air in the dorsal neck region. The model may be used to test the efficacy and potency of compounds such as polyamine analogues and polyamine biosynthesis inhibitors such as MGBG in reducing various cellular and biochemical indicators of inflammation when administered as an oral (PO) gavage administration.
Animals, compounds, and dosing. Healthy male Swiss Webster mice of 7-9 weeks of age and at least 30 g in weight were used. Animals were divided into six groups of thirty. Each group was administered 6 mL of air subcutaneously as described below on days 4 and 7. […] Tolerance of test compound dosing was monitored in mice by daily visual inspections of physical and behavioral changes, such as examined changes in body posture, hair coat, activity, excreta, etc., and dosing reevaluated upon negative findings. […]
Exudate, Plasma, and Histological Collection. The systemic exposure of the test article was evaluated as follows. Plasma samples were prepared and evaluated as follows. […]

[2] = system: carrageenan-induced paw edema and hyperalgesia; test: Carrageenan paw test for edema and hyperalgesia; format: in vivo, Swiss Webster mice
Text: Injection of carrageenan subcutaneously into the hind foot (paw) of a rat or mouse induces robust inflammation and pain. The inflammatory response begins 1-2 hrs post-carrageenan injection and persists for at least five hours following inoculation. In addition, the animal's inflamed hind paw is sensitive to noxious (hyperaglesia) or innocuous (allodynia) stimuli, compared to the contralateral hind paw. Compounds can be evaluated in this model for anti-hyperalgesia and anti-inflammatory activity. […] It is possible that some compounds will affect the inflamed paw and not affect the responses of the contralateral paw.
Embodiments of the carrageenan foot edema test are performed with materials, reagents and procedures essentially as described by Winter, et al., (Proc. Soc. Exp. Biol. Med., 111, 544 (1962)). Prophylactic and therapeutic embodiments have been developed, and are known in the art. The animals are evaluated for their responsiveness to noxious (paw pinch, plantar test) or innocuous (cold plate, von Frey filaments) stimuli. In the following protocol, mice were used.
Animals, compounds, and dosing. Healthy young male Swiss Webster mice in which weight variation of the mice will not exceed ±20% of the mean were used for the study. […]
Paw Edema. Immediately before sub-plantar administration of carrageenan and after 2, 3, 5 and 24 hours post carrageenan, mouse paw volume was measured using the plethysmometer (Ugo Basile). The assessment of edema was expressed as the mean increase in paw volume relative to control.
Assessment of Paw Withdrawal Latency. Prior to sub-plantar administration of carrageenan and after 0.5, 2, 3, 5, and 24 hours post-carrageenan, the latency of withdrawal response was determined by placing mice on a hot plate analgesia meter with surface temperature maintained at 51° C. […] Paw withdrawal latency is calculated as Δt=right paw withdrawal−left paw withdrawal. […]

CC(/C=N/NC(=N)N)=N\NC(=N)N [MGBG, 1,1′[methylethanediylidene]dinitrilodiguanidine]
efficacy, changes relative to control indicative of reduced inflammation [1]: efficacious | reduction of edema ([2]; mice, MGBG PO BID): efficacious | reduction of hyperalgesia ([2]; mice, MGBG PO BID, hot plate paw withdrawal latency): efficacious | efficacy at lower doses ([2]; murine carrageenan models, 3 mg/kg PO BID and 10 mg/kg PO BID): efficacy
